Marks after values point to notes of the source that are not given here.
What was measured:
[1] = system: INF-γ production; assay: Cytokine ELISA of one-way MLR supernatants, INF-γ; type: cell-based, murine; details: versus untreated, FIG. 8
Method: (§1) In a one-way MLR (FIG. 3), a stimulator splenocyte population (BALB/c) was treated with 30 ppm mitomycin C (MP Biomedicals) in RPMI 1640 (10% FCS) at 37 degree C. for 30 min. to arrest its proliferation before EGCG treatments. The splenocytes were then resuspended with the media solution (RPMI 1640 and 10 mM HEPES) containing 0, 100, and 200 ppm EGCG and incubated at 4-8 degree C. for 1 hour and twice washed with RPMI 1640 (10% FCS) before used for MLR experiments. In a two-way MLR (FIG. 4), both stimulator and responder populations were left capable of proliferating. Each cell population was resuspended in RPMI 1640 (10% FCS) and antibiotics: (penicillin 100 U/ml and streptomycin 100 ppm, BioWhittaker) to a final concentration of 5.0×10^6 cells/ml. The stimulator and responder cells were mixed with a 1:1 ratio (120 μl each) and incubated in triplicate in 96-well plates for 72 hours at […] and 5% CO2. Cell proliferation was estimated by counting with trypan-blue exclusion a small sample of the cells from each MLR well.
(§2) Supernatants from the one-way MLR wells (Example II) were assayed for IL-2 and INF-γ production using cytokine quantification ELISA (e-Bioscience).

[2] = system: C57BI/6 splenocytes co-cultured with EGCG-treated BALB/c splenocytes; assay: Occurrence of anergy: secondary stimulation of one-way MLR cultures; type: cell-based, murine; details: additional 48 hours, FIG. 9
Method: as §1

[3] = system: IL-2 production; assay: Cytokine ELISA of one-way MLR supernatants, IL-2; type: cell-based, murine; details: versus untreated, FIG. 7
Method: as §1, §2

[4] = system: C57BI/6 splenocytes; assay: Viability of EGCG-treated splenocytes; type: cell-based, murine
Excerpt: In a two-way MLR (FIG. 4), both stimulator and responder populations were left capable of proliferating. […] (penicillin 100 U/ml and streptomycin 100 ppm, BioWhittaker) to a final concentration of 5.0×10^6 cells/ml. […] Cell proliferation was estimated by counting with trypan-blue exclusion a small sample of the cells from each MLR well. […] Thus, the attenuation of proliferation as indicated in the MLR experiments (Example II) was not largely due to an EGCG's direct toxicity to the splenocytes. […] The experiments were performed as in Example II.

[5] = system: BALB/c (stimulator cells) and C57BI/6 (responder cells) splenocytes; assay: Two-way mixed lymphocyte reaction (MLR); type: cell-based, murine; details: stimulator or responder cells treated with EGCG, 72 hours culture, FIG. 4
Excerpt: In a two-way MLR (FIG. 4), both stimulator and responder populations were left capable of proliferating. […] (penicillin 100 U/ml and streptomycin 100 ppm, BioWhittaker) to a final concentration of 5.0×10^6 cells/ml. […] Cell proliferation was estimated by counting with trypan-blue exclusion a small sample of the cells from each MLR well.

[6] = target: T1, CD49d (Mus musculus, UniProt Q00651); assay: Lymphocyte marker analysis by flow cytometry, CD49d epitope; type: cell-based, murine (C57BI/6 splenocytes); details: for percent expression of cell surface molecule CD49d: epitope-specific antibody, average of triplicate; for average percent suppression in epitope detection, CD49d: relative to untreated control (0 ppm)
T1 construct: endogenous in cells; host or cells: murine splenocytes (C57Bl/6)
T1 sequence (Q00651 41-1039): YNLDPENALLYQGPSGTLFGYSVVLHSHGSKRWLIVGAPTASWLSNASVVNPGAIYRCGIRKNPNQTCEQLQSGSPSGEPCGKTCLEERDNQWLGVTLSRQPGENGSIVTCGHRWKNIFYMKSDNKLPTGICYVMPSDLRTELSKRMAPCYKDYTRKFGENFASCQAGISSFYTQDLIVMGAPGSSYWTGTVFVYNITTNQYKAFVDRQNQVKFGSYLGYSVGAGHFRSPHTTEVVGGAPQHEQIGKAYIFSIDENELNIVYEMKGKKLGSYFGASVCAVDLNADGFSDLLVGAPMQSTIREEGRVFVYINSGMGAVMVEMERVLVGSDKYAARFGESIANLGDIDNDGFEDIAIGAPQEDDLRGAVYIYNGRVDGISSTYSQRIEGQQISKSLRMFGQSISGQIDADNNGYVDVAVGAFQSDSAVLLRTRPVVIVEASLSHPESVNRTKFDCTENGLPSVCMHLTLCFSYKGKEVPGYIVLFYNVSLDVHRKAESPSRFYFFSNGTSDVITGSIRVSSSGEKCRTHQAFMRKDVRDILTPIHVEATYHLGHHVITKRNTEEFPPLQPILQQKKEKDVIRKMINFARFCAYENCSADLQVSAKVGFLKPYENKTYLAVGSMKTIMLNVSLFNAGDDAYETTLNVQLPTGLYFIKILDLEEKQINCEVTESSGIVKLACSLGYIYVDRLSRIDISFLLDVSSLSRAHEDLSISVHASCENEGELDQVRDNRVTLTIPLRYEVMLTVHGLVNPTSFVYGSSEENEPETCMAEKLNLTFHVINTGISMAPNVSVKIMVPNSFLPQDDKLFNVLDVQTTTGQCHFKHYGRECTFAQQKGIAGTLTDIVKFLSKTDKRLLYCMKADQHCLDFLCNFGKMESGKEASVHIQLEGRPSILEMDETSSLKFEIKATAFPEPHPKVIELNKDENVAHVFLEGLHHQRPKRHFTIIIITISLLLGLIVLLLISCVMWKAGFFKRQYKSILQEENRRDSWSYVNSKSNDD
Method: To evaluate the action of EGCG in rendering cells to become anergy-inducing, murine splenocytes were used as a model system. Splenocytes were collected from BALB/c (H2 K^b) and C57BI/6 (H2 K^d) female mice of 8 to 13 weeks of age in HBSS (BioWhittaker) with 1% FCS. Cells were washed with HBSS (1% FCS) and treated with the media solution which contains RPMI 1640 (Sigma-Aldrich), 10 mM HEPES (Dojindo), and various concentrations of EGCG (98% purity, Roche) described in the examples.
Flow cytometric analyses of surface epitopes for the control and EGCG-treated splenocytes were performed using a series of fluorescence-labeled monoclonal anti-mouse CD and MHC and corresponding isotype control antibodies (eBioscience: CD2, CD36, CD4, CD11a, CD25, CD 28, CD 49d and CD80; Pharmingen: TCRαβ and MHC II). Murine splenocytes (C57BI/6) were treated with red blood cell lysis buffer (eBioscience) for 5 min prior to EGCG treatments. Immediately following EGCG-treatments, the splenocytes were washed with RPMI 1640 (10% FCS) and a staining buffer (eBioscience) at 4 degree C. Each splenocyte sample was reconstituted as a 50 μl aliquot in the same staining buffer and subject to antibody labeling. After washing twice the samples with the staining buffer, a minimum of 10,000 events per sample was collected on a Becton Dickinson FACScan flow cytometer.

percent expression of cell surface molecule CD49d ([6]; EGCg 100 ppm): 19.7%
average percent suppression in epitope detection, CD49d ([6]; EGCg 100 ppm): (54.1)** percent
percent expression of cell surface molecule CD49d ([6]; EGCg 200 ppm): 20.5%
average percent suppression in epitope detection, CD49d ([6]; EGCg 200 ppm): (52.2)** percent
blocking of CD49d by EGCG ([6]; summary of TABLE 1): blocked
Substance: (−)-epigallocatechin-3-o-gallate [EGCG]
production of INF-γ [1]: significantly decreased down to near or below the background levels
T-cell proliferation after secondary stimulation ([2]; both treatments (fresh stimulator cells, exogenous IL-2 1.7 IU/ml) added at 48 hours): subtle but significant suppression
T-cell proliferation after secondary stimulation ([2]; cell-stimulated cultures: fresh BALB/c stimulator cells added at 48 hours): suppressed the proliferation down to the level of unstimulated blank
production of IL-2 [3]: significantly decreased down to near or below the background levels
viability of EGCG-treated splenocytes ([4]; stimulated (C57BI/6 co-cultured with BALB/c), 24, 48, 72 hours, FIG. 6): time-dependent decrease
viability of EGCG-treated splenocytes ([4]; unstimulated (C57BI/6 only), 24, 48, 72 hours culture without EGCG, FIG. 5): did not significantly decreased
proliferation of splenocytes [5]: significantly decreased

Reference: patent US20070259329A1, “Anergy-inducing cellular composition” (BioVerde. Inc., priority 2006, published 2007)
